US20250228239A1, “MOLECULES HAVING PESTICIDAL UTILITY, AND INTERMEDIATES, COMPOSITIONS, AND PROCESSES, RELATED THERETO” (priority 2024, published 2025)
Where two headings read alike, the source gives them in different places.

What was measured:
[1] = tested on: Beet Armyworm (Spodoptera exigua, LAPHEG); assay: Bioassays on Beet Armyworm (BAW), 128-well diet tray assay; assay type: in vivo; conditions: Spodoptera exigua
How it was run: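 One to five second-instar larvae per well on artificial diet surface-treated with 50 μg/cm^2 test molecule (applied in 90:10 acetone-water, dried), eight wells per compound. Trays held vented at 25° C., 14:10 light-dark for five to seven days; percent mortality averaged over the eight wells.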

[2] = tested on: Cabbage Looper (Trichoplusia ni, TRIPNI); assay: Bioassays on Cabbage Looper (CL), 128-well diet tray assay; assay type: in vivo; conditions: Trichoplusia ni
How it was run: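 Test molecule was dissolved in 90:10 acetone-water, applied to artificial diet at 50 μg/cm^2 and allowed to dry. Second-instar larvae were then added, one to five per well, and trays held at 25° C for five to seven days before mortality was scored and averaged.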

[3] = Beet Armyworm, rating class, read-out: BAW
[4] = Cabbage Looper, rating class, read-out: CL
[5] = Beet Armyworm, Table ABC / ABC-DP rating, read-out: BAW rating
[6] = Cabbage Looper, Table ABC / ABC-DP rating, read-out: CL rating
[7] = Table ABC: Biological Results, species BAW, read-out: BAW
[8] = Table ABC: Biological Results, species CL, read-out: CL

Structure (SMILES) | pest or weed control at 50 µg/cm2 [1, 3] [%] | pest or weed control at 50 µg/cm2 [2, 4] [%] | further results
CC(=O)Nc1ccc(F)c(NC(=O)c2cc(NC(=O)[C@H]3[C@H](c4cc(Cl)c(Cl)c(Cl)c4)C3(Cl)Cl)cc(C)c2Cl)c1F [F1524, N-(3-Acetamido-2,6-difluorophenyl)-2-chloro-5-((1R,3R)-2,2-dichloro-3-(3,4,5-trichlorophenyl)cyclopropane-1-carboxamido)-3-methylbenzamide] | 50 to 100 | 50 to 100 | 
CC(=O)Nc1c(F)ccc(NC(=O)c2cc(NC(=O)[C@H]3[C@H](c4ccc(F)c(C(F)(F)F)c4)C3(Cl)Cl)cc(C)c2Cl)c1F [F1545, N-(3-acetamido-2,4-difluorophenyl)-2-chloro-5-((1R,3R)-2,2-dichloro-3-(4-fluoro-3-(trifluoromethyl)phenyl)cyclopropane-1-carboxamido)-3-methylbenzamide] | 50 to 100 | 50 to 100 | 
O=C(Nc1ccc(F)c(NC(=O)C(F)(F)C(F)(F)OC(F)(F)F)c1F)c1cc(NC(=O)[C@H]2[C@H](c3ccc(F)c(C(F)(F)F)c3)C2(Cl)Cl)ccc1Cl [F1834, 2-Chloro-5-((1R,3R)-2,2-dichloro-3-(4-fluoro-3-(trifluoromethyl)phenyl)cyclopropane-1-carboxamido)-N-(2,4-difluoro-3-(2,2,3,3-tetrafluoro-3-(trifluoromethoxy)propanamido)phenyl)benzamide] |  |  | pest or weed control at 50 µg/cm2 [1, 5]: 50 to 100%; pest or weed control at 50 µg/cm2 [2, 6]: 50 to 100%
O=C(Nc1ccc(F)c(NC(=O)C(F)F)c1F)c1cc(NC(=O)[C@H]2[C@H](c3cc(Cl)c(Cl)c(Cl)c3)C2(Cl)Cl)ccc1F [F1527, 5-((1R,3R)-2,2-Dichloro-3-(3,4,5-trichlorophenyl)cyclopropane-1-carboxamido)-N-(3-(2,2-difluoroacetamido)-2,4-difluorophenyl)-2-fluorobenzamide] | 50 to 100 | 50 to 100 | 
Cc1cc(F)c(NC(=O)c2cc(NC(=O)[C@H]3[C@H](c4ccc(F)c(Cl)c4)C3(Cl)Cl)ccc2Cl)cc1N [F1135, N-(5-Amino-2-fluoro-4-methylphenyl)-2-chloro-5-((1R,3R)-2,2-dichloro-3-(3-chloro-4-fluorophenyl)cyclopropane-1-carboxamido)benzamide] |  |  | pest or weed control at 50 µg/cm2 [1, 7]: 50 to 100%; pest or weed control at 50 µg/cm2 [2, 8]: 50 to 100%
C=C(F)C(=O)Nc1c(F)ccc(NC(=O)c2cc(NC(=O)[C@H]3[C@H](c4ccc(Cl)c(Cl)c4)C3(Cl)Cl)ccc2Cl)c1F [F1871, 2-Chloro-5-((1R,3R)-2,2-dichloro-3-(3,4-dichlorophenyl)cyclopropane-1-carboxamido)-N-(2,4-difluoro-3-(2-fluoroacrylamido)phenyl)benzamide] |  |  | pest or weed control at 50 µg/cm2 [1, 5]: 50 to 100%; pest or weed control at 50 µg/cm2 [2, 6]: 50 to 100%
O=C(Nc1cc(NC(=O)C(F)(F)F)c(F)cc1F)c1cc(NC(=O)[C@H]2[C@H](c3cc(Cl)cc(Cl)c3)C2(Cl)Cl)cc(F)c1Cl [F1409, 2-Chloro-5-((1R,3R)-2,2-dichloro-3-(3,5-dichlorophenyl)cyclopropane-1-carboxamido)-N-(2,4-difluoro-5-(2,2,2-trifluoroacetamido)phenyl)-3-fluorobenzamide] | 50 to 100 | 50 to 100 | 
CN(C(=O)C(F)F)c1c(F)ccc(NC(=O)c2cc(NC(=O)[C@H]3[C@H](c4cc(Cl)cc(Cl)c4)C3(Cl)Cl)ccc2Cl)c1F [F1462, 2-Chloro-5-((1R,3R)-2,2-dichloro-3-(3,5-dichlorophenyl)cyclopropane-1-carboxamido)-N-(3-(2,2-difluoro-N-methylacetamido)-2,4-difluorophenyl)benzamide] | 50 to 100 | 50 to 100 | 
CC(C)NC(=S)NNC(=O)c1cc(NC(=O)[C@H]2[C@H](c3cc(Cl)cc(Cl)c3)C2(Cl)Cl)ccc1Cl (relative stereo) [F2540, trans-2,2-Dichloro-N-(4-chloro-3-(2-(isopropylcarbamothioyl)hydrazine-1-carbonyl)phenyl)-3-(3,5-dichlorophenyl)cyclopropane-1-carboxamide] |  |  | pest or weed control at 50 µg/cm2 [1, 5]: 50 to 100%; pest or weed control at 50 µg/cm2 [2, 6]: 50 to 100%
O=C(Nc1cc(NC(=O)C(F)F)c(F)cc1F)c1cc(NC(=O)[C@H]2[C@H](c3cc(Cl)c(Cl)c(Cl)c3)C2(Cl)Cl)cc(F)c1Cl [F1404, 2-Chloro-5-((1R,3R)-2,2-dichloro-3-(3,4,5-trichlorophenyl)cyclopropane-1-carboxamido)-N-(5-(2,2-difluoroacetamido)-2,4-difluorophenyl)-3-fluorobenzamide] | 50 to 100 | 50 to 100 | 
O=C(Nc1ccc(F)c(NC(=O)C2CCCS2)c1F)c1cc(NC(=O)[C@H]2[C@H](c3ccc(F)c(C(F)(F)F)c3)C2(Cl)Cl)ccc1Cl (stereo partly drawn) [F1721, N-(3-(2-Chloro-5-((1R,3R)-2,2-dichloro-3-(4-fluoro-3-(trifluoromethyl)phenyl)cyclopropane-1-carboxamido)benzamido)-2,6-difluorophenyl)tetrahydrothiophene-2-carboxamide] | 50 to 100 | 50 to 100 | 
CC(=O)Nc1cc(NC(=O)c2cc(NC(=O)[C@H]3[C@H](c4cc(Cl)cc(Cl)c4)C3(Cl)Cl)ccc2Cl)ccc1F (relative stereo) [F1638, trans-N-(3-Acetamido-4-fluorophenyl)-2-chloro-5-(2,2-dichloro-3-(3,5-dichlorophenyl)cyclopropane-1-carboxamido)benzamide] | 50 to 100 | 50 to 100 | 
Cc1cc(NCc2ccc(NC(=O)OC(C)(C)C)cc2)ccc1NC(=O)c1cc(NC(=O)[C@H]2[C@H](c3cc(Cl)cc(Cl)c3)C2(Cl)Cl)ccc1Cl (relative stereo) [F1348, trans-tert-Butyl (4-(((4-(2-chloro-5-(2,2-dichloro-3-(3,5-dichlorophenyl)cyclopropane-1-carboxamido)benzamido)-3-methylphenyl)amino)methyl)phenyl)carbamate] |  |  | pest or weed control at 50 µg/cm2 [1, 7]: 50 to 100%; pest or weed control at 50 µg/cm2 [2, 8]: 50 to 100%
O=C(Nc1c(F)ccc(NC(=O)C(F)(F)F)c1F)c1cc(NC(=O)[C@H]2[C@H](c3ccc(Cl)c(Cl)c3)C2(Cl)Cl)ccc1Cl [F1537, 2-Chloro-5-((1R,3R)-2,2-dichloro-3-(3,4-dichlorophenyl)cyclopropane-1-carboxamido)-N-(2,6-difluoro-3-(2,2,2-trifluoroacetamido)phenyl)benzamide] | 50 to 100 | 50 to 100 | 
CC(=O)Nc1c(F)ccc(NC(=O)c2cc(NC(=O)[C@H]3[C@H](c4ccc(F)c(C(F)(F)F)c4)C3(Cl)Cl)cc(F)c2F)c1F [F1570, N-(3-Acetamido-2,4-difluorophenyl)-5-((1R,3R)-2,2-dichloro-3-(4-fluoro-3-(trifluoromethyl)phenyl)cyclopropane-1-carboxamido)-2,3-difluorobenzamide] | 50 to 100 | 50 to 100 | 
O=C(Nc1ccc(F)cc1F)c1cc(NC(=O)[C@@H]2[C@@H](c3ccc(F)c(F)c3)C2(Cl)Cl)ccc1Cl [F1751, 2-Chloro-5-((1S,3S)-2,2-dichloro-3-(3,4-difluorophenyl)cyclopropane-1-carboxamido)-N-(2,4-difluorophenyl)benzamide] | 50 to 100 | 50 to 100 | 
